From patent US9828375B2, “4-position substituted pyrazolopyrimidine derivative, and use thereof in drug preparation” (Guangxi Wuzhou Pharmaceuticals (Group) Co., Ltd., priority 2012, dated 2017) come the findings set out here.

Usually IC50 stands for the midpoint of a concentration-inhibition curve. Lower therefore signals greater potency in that assay.

The test system of one assay is human leukemia cell line Jurkat. The assay is described as follows: In vitro tumor cell proliferation inhibition (MTT): Jurkat. Type of assay: cell-based. The following applies: 72 hours. The text has this:
The purpose of the experiment was to test the inhibition activity of the compounds of the invention for in vitro human tumor cell proliferation by the methyl thiazolyl tetrazolium (MTT) colorimetry.
Main reagents: RPMI-1640, fetal bovine serum, pancreatin, etc. were purchased from Gibco BRL Company (Invitrogen Corporation, USA) and IMDM medium that was purchased from American Type Culture Collection (ATCC). Methyl thiazolyl tetrazolium (MTT) and dimethyl sulfoxide (DMSO) were products from Sigma Company (USA). Pyrazolopyrimidine derivatives were composed by the inventor. During in vitro experiment, 100% DMSO was prepared into 10 mM storage solution, the solution was stored in a refrigerator at −20° C. for future use, and was diluted to the required concentration with complete culture solution before use.
Cell line and culture: Human leukemia cell line MV4-11, Jurkat, K562, human thyrophyma cell line TT, human gastric carcinoma cell line MKN-45, human malignant melanoma cell lines A375 and A875, human pancreatic carcinoma cell line panc-1, human cervical carcinoma cell line HELA, human colorectal carcinoma cell line HCT116, etc. were purchased from American type culture collection and were preserved by this laboratory. All leukemia cell lines (except MV4-11), gastric carcinoma cell lines and thyrophyma cell lines were cultured in RPMI-1640 complete medium containing 10% fetal bovine serum, 100 U/mL penicillin and 100 μg/mL streptomycin at 37° C. in 5% CO2. The remaining cell lines were cultured in DMEM complete medium containing 10% fetal bovine serum (containing 20% MV4-11 cell), 100 U/mL penicillin and 100 µg/mL streptomycin at 37° C. in 5% CO2.
Cell suspension with cell concentration of 1-2×10^4/mL was adjusted with the complete cell medium and inoculated in a 96-well plate, with each well filled with 200 μl cell suspension that was cultured overnight. On the next day, supernatant was sucked and abandoned (supernatant was sucked upon centrifugation of suspension cells), and then cells were processed with test compounds at gradient concentrations respectively. Meanwhile, a negative control group free from drug and a solvent control group with equal volume were set, and the DMSO concentration was 0.1%. Each dose group was provided with three wells and cultured at 37° C. in 5% CO2. After 72 hours, 20 μl 5 mg/mL MTT reagent was added to each well, and cultured for another 2 to 4 hours, the supernatant was abandoned; 150 μL DMSO was added to each well again, vibrated and mixed evenly for 15 minutes; the absorbance (A) values (proportional to living cell amount) were determined with a microplate reader (λ=570 nm) and averaged. […] Experiment was repeated for 3 times at least. Experimental data were expressed with means, data statistics were tested by t, and P<0.05 means that difference has a statistical significance. The cell proliferation inhibition effects of all compounds as follows are expressed by IC50 or inhibition rate.
Regarding “1-(4-((1H-pyrazolopyrimidine-4-yl)oxy)-3-fluorophenyl)-3-(3-trifluoromethoxy)phenyl)urea [4a-8]”, the IC50 was < 50 µM.

Regarding “1-(4-((1H-pyrazolopyrimidine-4-yl)oxy)phenyl)-3-(methylcyclohexyl)urea [4a-20]”, the IC50 was < 50 µM.

Take `O=C(Nc1ccc(Oc2ncnc3[nH]ncc23)cc1)Nc1ccc(Cl)c(C(F)(F)F)c1` [4a-2]: 8.72 µM corresponded to half-maximal inhibition (IC50).

As for `CC(C)c1cccc(NC(=O)Nc2ccc(Oc3ncnc4[nH]ncc34)c(F)c2)c1` [4a-7, 1-(4-((1H-pyrazolopyrimidine-4-yl)oxy)-3-fluorophenyl)-3-(3-isopropylphenyl)urea], the IC50 is < 50 µM.

For `O=C(Nc1ccc(C(F)(F)F)cc1)Nc1ccc(Oc2ncnc3[nH]ncc23)c(F)c1` [4a-9, 1-(4-((1H-pyrazolopyrimidine-4-yl)oxy)-3-fluorophenyl)-3-(4-(trifluoromethyl)phenyl)urea], the IC50 is < 50 µM.

For `O=C(Nc1ccc(Oc2ncnc3[nH]ncc23)c(F)c1)Nc1ccc(Cl)c(C(F)(F)F)c1` [4a-10, 1-(4-((1H-pyrazolopyrimidine-4-yl)oxy)-3-fluorophenyl)-3-(4-chloro-3-(trifluoromethyl)phenyl)urea], the IC50 came out at 9.93 µM.

Take `O=C(Nc1ccc(Oc2ncnc3[nH]ncc23)cc1)Nc1cc(C(F)(F)F)cc(C(F)(F)F)c1` [4a-12, 1-(4-((1H-pyrazolopyrimidine-4-yl)oxy)phenyl)-3-(3,5-bis(trifluoromethyl)phenyl)urea]: the IC50 was < 50 µM.

Turning to `O=C(Nc1ccc(Oc2ncnc3[nH]ncc23)cc1)Nc1ccc(C(F)(F)F)cc1Cl` [4a-13], the 50% inhibitory concentration (IC50) was < 50 µM.

With `O=C(Nc1ccccc1)Nc1ccc(Oc2ncnc3[nH]ncc23)cc1` [4a-15, 1-(4-((1H-pyrazolopyrimidine-4-yl)oxy)phenyl)-3-phenylurea], the IC50 was < 50 µM.

`C[C@H](NC(=O)Nc1ccc(Oc2ncnc3[nH]ncc23)cc1)c1ccccc1` [4a-18, (S)-1-(4-((1H-pyrazolopyrimidine-4-yl)oxy)phenyl)-3-(1-phenethyl)urea]: the IC50 fell in the range of 3 to 10 µM.

As for `CC(C)(C)c1cc(NC(=O)Nc2ccc(Oc3ncnc4[nH]ncc34)cc2)on1` [4a-25], the IC50 was < 50 µM.

The compound `CC(C)(C)c1cc(NC(=O)Nc2ccc(Oc3ncnc4[nH]ncc34)c(F)c2)no1` [4a-31] came in with an IC50 of 6.1 µM.

For the compound `C[C@H](NC(=O)Nc1ccc(Nc2ncnc3[nH]ncc23)cc1)c1ccccc1` [4b-4], the 50% inhibitory concentration (IC50) was < 50 µM.

With `O=C(Nc1ccc(Sc2ncnc3[nH]ncc23)cc1)Nc1cccc(C(F)(F)F)c1` [4c-2], the IC50 was < 50 µM.

Turning to `CC(C)(C)c1cc(NC(=O)Nc2ccc(Sc3ncnc4[nH]ncc34)cc2)no1` [4c-3, 1-(4-(1H-pyrazolopyrimidine-4-sulfydryl)phenyl)-3-(5-tert-butylisoxazol-3-yl)urea], the IC50 was < 50 µM.

The assay is the same for the next values; noted with them: Homo sapiens, Jurkat, 72 hours.
Consider `O=C(Nc1ccc(Oc2ncnc3[nH]ncc23)cc1)Nc1ccc(C(F)(F)F)cc1` [4a-1], for which the IC50 is < 50 µM.

Regarding `O=C(Nc1ccc(Oc2ncnc3[nH]ncc23)cc1)Nc1cccc(C(F)(F)F)c1` [4a-6], the IC50 stood at 4.28 µM.

On to `O=C(Nc1ccc(Oc2ncnc3[nH]ncc23)cc1)Nc1ccc(N2CCOCC2)cc1` [4a-16, 1-(4-((1H-pyrazolopyrimidine-4-yl)oxy)phenyl)-3-(4-morpholinylphenyl)urea], for which the IC50 was < 50 µM.

In turn, `CC(C)(C)c1cc(NC(=O)Nc2ccc(Oc3ncnc4[nH]ncc34)cc2)no1` [4a-26] displayed an IC50 of 3 to 10 µM.

With `O=C(Nc1ccc(Oc2ncnc3[nH]ncc23)cc1)Nc1cc(C(F)(F)F)on1` [4a-28], the IC50 is 3 to 10 µM.

For the compound `O=C(Nc1cccc(Nc2ncnc3[nH]ncc23)c1)Nc1ccc(F)c(Cl)c1` [4b-1], the IC50 is < 50 µM.

In the case of `C[C@@H](NC(=O)Nc1ccc(Nc2ncnc3[nH]ncc23)cc1)c1ccccc1` [4b-2, (R)-1-(4-(1H-pyrazolopyrimidine-4-amido)phenyl)-3-(1-phenethyl)urea], the IC50 was < 50 µM.

In the case of `COc1cccc(NC(=O)Nc2ccc(Nc3ncnc4[nH]ncc34)cc2)c1` [4b-3], the IC50 is < 50 µM.

For `COc1ccc(NC(=O)Nc2ccc(NC(=O)N3C=NC=C4NNC=C43)cc2)cc1` [4b-6, 1-(4-(1H-pyrazolopyrimidine-4-amido)phenyl)-3-(4-methoxyphenyl)urea], the IC50 is < 50 µM.

In the case of `Cc1cc(C)c(NC(=O)Nc2ccc(NC(=O)N3C=NC=C4NNC=C43)cc2)c(C)c1` [4b-7, 1-(4-(1H-pyrazolopyrimidine-4-amido)phenyl)-3-(2,4,6-trimethylphenyl)urea], the IC50 is < 50 µM.

In the case of `O=C(Nc1ccc(Sc2ncnc3[nH]ncc23)cc1)Nc1ccc(C(F)(F)F)cc1` [4c-1], the IC50 was < 50 µM.

For `CC(C)n1ncc2c(Oc3ccc(NC(=O)Nc4cc(C(C)(C)C)on4)cc3)ncnc21` [5a-4, 1-(5-tert-butylisoxazol-3-yl)-3-(4-(1-isopropyl-(1H-pyrazolopyrimidine-4-yl)oxy)phenyl)urea], the IC50 is < 50 µM.
